Where two headings read alike, the source gives them in different places.
Tests used:
[1] = system: human cervical tumor cell line HeLa (ATCC CCL-2); experiment: SAC-Formation - Paclitaxel-Induced Assay; assay type: cell-based; settings: 24 h, HeLa cells, paclitaxel 0.05 μM, test range 0.005 μM-20 μM, read-out: IC50 [mol/l] SAC-Formation - Paclitaxel-Induced Assay
Outline: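 Read-out is high-content imaging of anti-phospho-H3 Ser10 (mitosis) and Hoechst 33342 (DNA, cell number), with decreased mitotic fraction marking checkpoint breakthrough. Compounds (0.005–20 μM) and 0.05 μM paclitaxel co-added to overnight-plated HeLa for 24 h at 37° C; four-parameter Hill fit.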

[2] = system: HeLa; experiment: Proliferation assay (crystal violet), HeLa; assay type: cell-based; settings: Homo sapiens, HeLa, 96 h, HeLa cells; 4 days incubation; crystal violet staining; read-out: IC50 inhibition of proliferation, HeLa
Outline: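 Four-day compound exposure (0.001-10 μM, 0.5% DMSO final) began 24 h after seeding 1000-5000 cells/well in medium with 10% fetal calf serum. Cell number read by crystal violet absorbance at 595 nm, scaled between day-zero plate and untreated control; 4-parameter fit gave IC50.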

In the case of `Cc1nsc(Nc2cnc(C(F)(F)F)cn2)c1C(=O)Nc1ccc(O[C@@H]2CCCN(CC(F)F)C2)nc1` [Example 385, N-(6-{[(3R)-1-(2,2-difluoroethyl)piperidin-3-yl]oxy}pyridin-3-yl)-3-methyl-5-{[5-(trifluoromethyl)pyrazin-2-yl]amino}-1,2-thiazole-4-carboxamide], the IC50 ([1]; Homo sapiens, HeLa) is reported as 300 nM and the IC50 [2] is reported as 350 nM.

In the case of `Cc1nsc(Nc2cnc(C(F)(F)F)cn2)c1C(=O)Nc1ccc(O[C@@H]2CCCN(CC(F)(F)F)C2)nc1` [Example 386, 3-methyl-N-(6-{[(3R)-1-(2,2,2-trifluoroethyl)piperidin-3-yl]oxy}pyridin-3-yl)-5-{[5-(trifluoromethyl)pyrazin-2-yl]amino}-1,2-thiazole-4-carboxamide], the IC50 ([1]; Homo sapiens, HeLa) is reported as 57 nM and the IC50 [2] is reported as 290 nM.

`Cc1nsc(Nc2cnc(C(F)(F)F)cn2)c1C(=O)Nc1ccc(O[C@@H]2CCCN(CCC(F)(F)F)C2)nc1` [Example 387, 3-methyl-5-{[5-(trifluoromethyl)pyrazin-2-yl]amino}-N-(6-{[(3R)-1-(3,3,3-trifluoropropyl)piperidin-3-yl]oxy}pyridin-3-yl)-1,2-thiazole-4-carboxamide] was tested, and the IC50 ([1]; Homo sapiens, HeLa) was 130 nM and the IC50 [2] was 400 nM.

`Cc1nsc(Nc2cnc(C(F)(F)F)cn2)c1C(=O)Nc1ccc(O[C@H]2CCCN(CC(F)F)C2)nc1` [Example 388, N-(6-{[(3S)-1-(2,2-difluoroethyl)piperidin-3-yl]oxy}pyridin-3-yl)-3-methyl-5-{[5-(trifluoromethyl)pyrazin-2-yl]amino}-1,2-thiazole-4-carboxamide] gave an IC50 ([1]; Homo sapiens, HeLa) of 80 nM and an IC50 [2] of 370 nM.

With `Cc1nsc(Nc2cnc(C(F)(F)F)cn2)c1C(=O)Nc1ccc(O[C@H]2CCCN(CC(F)(F)F)C2)nc1` [Example 389, 3-methyl-N-(6-{[(3S)-1-(2,2,2-trifluoroethyl)piperidin-3-yl]oxy}pyridin-3-yl)-5-{[5-(trifluoromethyl)pyrazin-2-yl]amino}-1,2-thiazole-4-carboxamide] the IC50 ([1]; Homo sapiens, HeLa) was 160 nM and the IC50 [2] was 310 nM.

`Cc1nsc(Nc2cnc(C(F)(F)F)cn2)c1C(=O)Nc1ccc(O[C@H]2CCCN(CCC(F)(F)F)C2)nc1` [Example 390, 3-methyl-5-{[5-(trifluoromethyl)pyrazin-2-yl]amino}-N-(6-{[(3S)-1-(3,3,3-trifluoropropyl)piperidin-3-yl]oxy}pyridin-3-yl)-1,2-thiazole-4-carboxamide] was tested, and the IC50 ([1]; Homo sapiens, HeLa) was 110 nM and the IC50 [2] was 320 nM.

In the case of `Cc1nsc(Nc2cnc(C(F)(F)F)cn2)c1C(=O)Nc1ccc(OCC2CCN(CC(F)(F)F)CC2(F)F)nc1` (centres unmarked) [Example 392, N-(6-{[3,3-difluoro-1-(2,2,2-trifluoroethyl)piperidin-4-yl]methoxy}pyridin-3-yl)-3-methyl-5-{[5-(trifluoromethyl)pyrazin-2-yl]amino}-1,2-thiazole-4-carboxamide], the IC50 [1] is reported as 27 nM, the IC50 ([1]; Homo sapiens, HeLa) is reported as 30 nM and the IC50 [2] is reported as 490 nM.

`CCN1CCC(COc2ccc(NC(=O)c3c(C)nsc3Nc3cnc(C(F)(F)F)cn3)cn2)C(F)(F)C1` (centres unmarked) [Example 393, N-{6-[(1-ethyl-3,3-difluoropiperidin-4-yl)methoxy]pyridin-3-yl}-3-methyl-5-{[5-(trifluoromethyl)pyrazin-2-yl]amino}-1,2-thiazole-4-carboxamide] was tested, and the IC50 ([1]; Homo sapiens, HeLa) was 440 nM and the IC50 [2] was 430 nM.

For `Cc1nsc(Nc2cnc(C(F)(F)F)cn2)c1C(=O)Nc1ccc(F)c(OC[C@@H]2CCCN(CCC(F)(F)F)C2)c1` [Example 395, N-(4-fluoro-3-{[(3R)-1-(3,3,3-trifluoropropyl)piperidin-3-yl]methoxy}phenyl)-3-methyl-5-{[5-(trifluoromethyl)pyrazin-2-yl]amino}-1,2-thiazole-4-carboxamide], the IC50 [1] was 27 nM, the IC50 ([1]; Homo sapiens, HeLa) was 35 nM and the IC50 [2] was 480 nM.

With `CCCCN1CCC(COc2ccc(NC(=O)c3c(C)nsc3Nc3cnc(C(F)(F)F)cn3)cn2)C(F)(F)C1` (centres unmarked) [Example 396, N-{6-[(1-butyl-3,3-difluoropiperidin-4-yl)methoxy]pyridin-3-yl}-3-methyl-5-{[5-(trifluoromethyl)pyrazin-2-yl]amino}-1,2-thiazole-4-carboxamide] the IC50 ([1]; Homo sapiens, HeLa) was 18 nM and the IC50 [2] was 460 nM.

With `Cc1nsc(Nc2cnc(C(F)(F)F)cn2)c1C(=O)Nc1ccc(F)c(OC[C@H]2CCN(CC(F)F)C2)c1` [Example 397, N-(3-{[(3S)-1-(2,2-difluoroethyl)pyrrolidin-3-yl]methoxy}-4-fluorophenyl)-3-methyl-5-{[5-(trifluoromethyl)pyrazin-2-yl]amino}-1,2-thiazole-4-carboxamide] the IC50 ([1]; Homo sapiens, HeLa) was 82 nM and the IC50 [2] was 830 nM.

In the case of `Cc1nsc(Nc2cnc(C(F)(F)F)cn2)c1C(=O)Nc1ccc(F)c(OC[C@H]2CCN(CC(F)(F)F)C2)c1` [Example 398, N-(4-fluoro-3-{[(3S)-1-(2,2,2-trifluoroethyl)pyrrolidin-3-yl]methoxy}phenyl)-3-methyl-5-{[5-(trifluoromethyl)pyrazin-2-yl]amino}-1,2-thiazole-4-carboxamide], the IC50 ([1]; Homo sapiens, HeLa) is reported as 56 nM and the IC50 [2] is reported as 490 nM.

— patent US20170334899A1, “AMINO-SUBSTITUTED ISOTHIAZOLES” (Bayer Pharma Aktiengesellschaft, priority 2014, published 2017)
